The source of these data is patent US11649255B2, “Indazoles as hematopoietic progenitor kinase 1 (HPK1) inhibitors and methods using same” (1st Biotherapeutics, Inc., priority 2020, dated 2023).

The test deals with recombinant human HPK1 (Homo sapiens (Human), UniProt Q92918). Kind of test: HPK1 kinase assay (ADP-Glo). It counts as biochemical. Conditions: 25 μM ATP, MBP substrate. On the procedure: HPK1 kinase activity was measured by Promega's ADP-Glo™ kinase assay. In this assay, 5 ng of recombinant human HPK1 (signalchem) is incubated with 5 μL of compounds (0.5% DMSO), 5 μL of MBP (0.5 μg/μl) and 5 μL of ATP (25 μM) in buffer (40 mM Tris, 7.5; 20 mM MgCl2; 0.1 mg/ml BSA; 5 μM DTT). The assay was started by incubating the reaction mixture in a 96-well plate at 30′ C for 40 minutes. After the incubation, 25 uL ADP-Glo reagent was added and the reaction was incubated at room temperature for 40-min to stop the reaction and degrade residual ATP. The ADP product was then converted to ATP by adding 50 uL per well of detection reagent. Luminescence was detected after 30-min room temperature incubation with the Molecular device I3X plate reader. The IC50 values were calculated from a series of percent inhibition values determined at a range of inhibitor concentration using software routines as implemented in the GraphPad Prism 7 software and SigmaPlot13.0.
Sequence of recombinant human HPK1 (Q92918 whole entry): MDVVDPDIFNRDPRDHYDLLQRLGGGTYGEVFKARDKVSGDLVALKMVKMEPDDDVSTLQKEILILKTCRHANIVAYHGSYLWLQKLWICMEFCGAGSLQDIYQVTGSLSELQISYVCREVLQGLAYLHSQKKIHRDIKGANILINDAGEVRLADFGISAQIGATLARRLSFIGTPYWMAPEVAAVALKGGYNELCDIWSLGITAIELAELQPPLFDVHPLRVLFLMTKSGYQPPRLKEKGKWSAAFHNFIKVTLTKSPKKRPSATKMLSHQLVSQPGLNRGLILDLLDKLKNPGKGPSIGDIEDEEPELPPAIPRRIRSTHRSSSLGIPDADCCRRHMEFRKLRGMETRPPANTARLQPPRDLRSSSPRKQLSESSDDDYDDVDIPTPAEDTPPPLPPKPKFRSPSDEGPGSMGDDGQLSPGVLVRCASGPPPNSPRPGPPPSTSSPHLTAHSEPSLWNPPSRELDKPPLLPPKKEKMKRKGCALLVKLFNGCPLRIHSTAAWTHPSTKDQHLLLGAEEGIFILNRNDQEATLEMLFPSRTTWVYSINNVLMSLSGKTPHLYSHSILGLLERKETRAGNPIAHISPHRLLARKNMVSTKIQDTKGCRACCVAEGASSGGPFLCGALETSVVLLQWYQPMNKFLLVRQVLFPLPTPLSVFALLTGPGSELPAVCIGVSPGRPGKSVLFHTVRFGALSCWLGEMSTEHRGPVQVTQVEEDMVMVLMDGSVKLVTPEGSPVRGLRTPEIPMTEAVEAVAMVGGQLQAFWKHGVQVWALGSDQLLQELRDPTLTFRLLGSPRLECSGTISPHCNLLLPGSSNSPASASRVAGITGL
Usually IC50 stands for the midpoint of a concentration-inhibition curve. For the compound `CN(c1c(F)c(Cl)c(-c2ccn3nc(NC(=O)[C@@H]4C[C@@H]4F)cc3c2)c2cn[nH]c12)C1CCC(N)C1` (stereo partly drawn) [Example 527, (1S,2S)-N-(5-(7-((3-aminocyclopentyl)(methyl)amino)-5-chloro-6-fluoro-1H-indazol-4-yl)pyrazolo[1,5-a]pyridin-2-yl)-2-fluorocyclopropane-1-carboxamide], the concentration for half-maximal inhibition (IC50) is less than 0.1 µM.

Consider `CC(=O)c1c(F)c(Cl)c(-c2ccn3nc(NC(=O)[C@@H]4C[C@@H]4F)cc3c2)c2cn[nH]c12` [Example 575, (1S,2S)-N-(5-(7-acetyl-5-chloro-6-fluoro-1H-indazol-4-yl)pyrazolo[1,5-a]pyridin-2-yl)-2-fluorocyclopropane-1-carboxamide], for which the IC50 is less than 0.1 µM.

As for `C[S+]([O-])c1c(F)c(Cl)c(-c2ccn3nc(NC(=O)[C@@H]4C[C@@H]4F)cc3c2)c2cn[nH]c12` (stereo partly drawn) [Example 538, (1S,2S)-N-(5-(5-chloro-6-fluoro-7-(methylsulfinyl)-1H-indazol-4-yl)pyrazolo[1,5-a]pyridin-2-yl)-2-fluorocyclopropane-1-carboxamide], the IC50 is less than 0.1 µM.

Take `CC(NC1COC1)c1c(F)c(Cl)c(-c2ccc3nc(NC(=O)[C@@H]4C[C@@H]4F)cn3c2)c2cn[nH]c12` (stereo partly drawn) [Example 427, (1S,2S)-N-(6-(5-chloro-6-fluoro-7-(1-(oxetan-3-ylamino)ethyl)-1H-indazol-4-yl)imidazo[1,2-a]pyridin-2-yl)-2-fluorocyclopropane-1-carboxamide]: the IC50 is less than 0.1 µM.

With `CC(C)c1c(F)c(Cl)c(-c2ccn3nc(NC(=O)[C@@H]4C[C@@H]4F)cc3c2)c2cn[nH]c12` [Example 640, (1S,2S)-N-(5-(5-chloro-6-fluoro-7-isopropyl-1H-indazol-4-yl)pyrazolo[1,5-a]pyridin-2-yl)-2-fluorocyclopropane-1-carboxamide], the IC50 was less than 0.1 µM.

Consider `O=C(Nc1cn2cc(-c3c(Cl)c(F)c(CN4CCCCC4)c4[nH]ncc34)ccc2n1)[C@@H]1C[C@@H]1F` [Example 382, (1S,2S)-N-(6-(5-chloro-6-fluoro-7-(piperidin-1-ylmethyl)-1H-indazol-4-yl)imidazo[1,2-a]pyridin-2-yl)-2-fluorocyclopropane-1-carboxamide], for which the IC50 was in the range of 0.101 to 0.5 µM.

On to `CCc1c(F)c(N(C)C)c2[nH]ncc2c1-c1ccn2nc(NC(=O)[C@@H]3C[C@@H]3F)cc2c1` [Example 519, (1S,2S)-N-(5-(7-(dimethylamino)-5-ethyl-6-fluoro-1H-indazol-4-yl)pyrazolo[1,5-a]pyridin-2-yl)-2-fluorocyclopropane-1-carboxamide], for which the IC50 was less than 0.1 µM.

For the compound `CSc1c(F)cc2[nH]ncc2c1-c1ccn2nc(NC(=O)[C@H]3C[C@H]3F)cc2c1` [Example 573, (1R,2R)-2-fluoro-N-(5-(6-fluoro-5-(methylthio)-1H-indazol-4-yl)pyrazolo[1,5-a]pyridin-2-yl)cyclopropane-1-carboxamide], the concentration for half-maximal inhibition (IC50) is less than 0.1 µM.

Regarding `NC1CCCN(c2c(F)c(Cl)c(-c3ccc4nc(NC(=O)[C@@H]5C[C@@H]5F)sc4c3)c3cn[nH]c23)C1` (stereo partly drawn) [Example 84, (1S,2S)-N-(6-(7-(3-aminopiperidin-1-yl)-5-chloro-6-fluoro-1H-indazol-4-yl)benzo[d]thiazol-2-yl)-2-fluorocyclopropane-1-carboxamide], the IC50 is less than 0.1 µM.

For `CCOc1c(F)cc2[nH]ncc2c1-c1ccc2nc(NC(=O)[C@@H]3C[C@@H]3F)cn2c1` [Example 328, (1S,2S)-N-(6-(5-ethoxy-6-fluoro-1H-indazol-4-yl)imidazo[1,2-a]pyridin-2-yl)-2-fluorocyclopropane-1-carboxamide], the half-inhibitory concentration (IC50) is less than 0.1 µM.

As to `O=C(Nc1cn2cc(-c3c(CO)ccc4[nH]ncc34)ccc2n1)C1CC1` [Example 233, N-(6-(5-(hydroxymethyl)-1H-indazol-4-yl)imidazo[1,2-a]pyridin-2-yl)cyclopropanecarboxamide], the IC50 is 0.501 to 1 µM.

Take `CSc1c(F)c(F)c2[nH]ncc2c1-c1ccn2nc(NC(=O)[C@@H]3C[C@H]3F)cc2c1` [Example 599, (1S,2R)-N-(5-(6,7-difluoro-5-(methylthio)-1H-indazol-4-yl)pyrazolo[1,5-a]pyridin-2-yl)-2-fluorocyclopropane-1-carboxamide]: the IC50 was less than 0.1 µM.

`CCc1c(F)c(C(F)(F)F)c2[nH]ncc2c1-c1ccc2nc(NC(=O)[C@@H]3C[C@@H]3F)sc2n1` [Example 210, (1S,2S)-N-(5-(5-ethyl-6-fluoro-7-(trifluoromethyl)-1H-indazol-4-yl)thiazolo[5,4-b]pyridin-2-yl)-2-fluorocyclopropane-1-carboxamide]: the IC50 was less than 0.1 µM.

As for `NCCSc1c(F)c(Cl)c(-c2ccc3nc(NC(=O)[C@@H]4C[C@@H]4F)sc3c2)c2cn[nH]c12` [Example 70, (1S,2S)-N-(6-(7-((2-aminoethyl)thio)-5-chloro-6-fluoro-1H-indazol-4-yl)benzo[d]thiazol-2-yl)-2-fluorocyclopropane-1-carboxamide], the IC50 is less than 0.1 µM.

Regarding `O=C(Nc1cc2cc(-c3c(Cl)c(F)c(N4CCSCC4)c4[nH]ncc34)ccn2n1)[C@@H]1C[C@@H]1F` [Example 631, (1S,2S)-N-(5-(5-chloro-6-fluoro-7-thiomorpholino-1H-indazol-4-yl)pyrazolo[1,5-a]pyridin-2-yl)-2-fluorocyclopropane-1-carboxamide], the IC50 is less than 0.1 µM.

With `O=C(Nc1cc2cc(-c3c(Cl)c(F)cc4[nH]ncc34)ccn2n1)[C@@H]1C[C@@H]1F` [Example 458, (1S,2S)-N-(5-(5-chloro-6-fluoro-1H-indazol-4-yl)pyrazolo[1,5-a]pyridin-2-yl)-2-fluorocyclopropane-1-carboxamide], the IC50 is less than 0.1 µM.

Consider `CC(=O)NC(C)c1c(F)c(Cl)c(-c2ccc3nc(NC(=O)[C@@H]4C[C@@H]4F)cn3c2)c2cn[nH]c12` (stereo partly drawn) [Example 417, (1S,2S)-N-(6-(7-(1-acetamidoethyl)-5-chloro-6-fluoro-1H-indazol-4-yl)imidazo[1,2-a]pyridin-2-yl)-2-fluorocyclopropane-1-carboxamide], for which the IC50 was less than 0.1 µM.

For the compound `O=C(Nc1cn2cc(-c3c(Cl)c(F)c(SCCO)c4[nH]ncc34)ccc2n1)[C@@H]1C[C@@H]1F` [Example 290, (1S,2S)-N-(6-(5-chloro-6-fluoro-7-((2-hydroxyethyl)thio)-1H-indazol-4-yl)imidazo[1,2-a]pyridin-2-yl)-2-fluorocyclopropane-1-carboxamide], the IC50 was less than 0.1 µM.

As to `CN(C)c1c(F)cc(-c2ccc3nc(NC(=O)[C@@H]4C[C@@H]4F)cn3c2)c2cn[nH]c12` [Example 335, (1S,2S)-N-(6-(7-(dimethylamino)-6-fluoro-1H-indazol-4-yl)imidazo[1,2-a]pyridin-2-yl)-2-fluorocyclopropane-1-carboxamide], the IC50 was less than 0.1 µM.

Consider `CC(NC1(C#N)CC1)c1c(F)c(Cl)c(-c2ccc3nc(NC(=O)[C@@H]4C[C@@H]4F)cn3c2)c2cn[nH]c12` (stereo partly drawn) [Example 429, (1S,2S)-N-(6-(5-chloro-7-(1-((1-cyanocyclopropyl)amino)ethyl)-6-fluoro-1H-indazol-4-yl)imidazo[1,2-a]pyridin-2-yl)-2-fluorocyclopropane-1-carboxamide], for which the IC50 is less than 0.1 µM.
